Laboratory results from article doi:10.1101/2023.03.24.534094v2 (biorxiv, 2023).
Where two headings read alike, the source gives them in different places. One block for each compound: values may come before it.

How the values were obtained:
Test in all cases: biochemical
DRAK2 = biological target: T1, DRAK2 (Homo sapiens, UniProt O94768)
T1 sequence (O94768 1-372): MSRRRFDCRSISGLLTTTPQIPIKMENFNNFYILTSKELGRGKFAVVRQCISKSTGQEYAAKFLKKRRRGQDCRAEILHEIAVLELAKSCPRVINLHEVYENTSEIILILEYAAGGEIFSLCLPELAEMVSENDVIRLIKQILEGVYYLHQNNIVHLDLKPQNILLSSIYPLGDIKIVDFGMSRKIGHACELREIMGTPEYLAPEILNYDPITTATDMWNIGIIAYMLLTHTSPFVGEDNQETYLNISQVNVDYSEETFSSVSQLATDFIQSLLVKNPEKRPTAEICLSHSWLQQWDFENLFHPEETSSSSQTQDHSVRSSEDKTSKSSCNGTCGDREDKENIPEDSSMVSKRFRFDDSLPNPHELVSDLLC

MYT1 = biological target: T2, MYT1 (Homo sapiens, UniProt Q99640)
T2 sequence (Q99640 1-499): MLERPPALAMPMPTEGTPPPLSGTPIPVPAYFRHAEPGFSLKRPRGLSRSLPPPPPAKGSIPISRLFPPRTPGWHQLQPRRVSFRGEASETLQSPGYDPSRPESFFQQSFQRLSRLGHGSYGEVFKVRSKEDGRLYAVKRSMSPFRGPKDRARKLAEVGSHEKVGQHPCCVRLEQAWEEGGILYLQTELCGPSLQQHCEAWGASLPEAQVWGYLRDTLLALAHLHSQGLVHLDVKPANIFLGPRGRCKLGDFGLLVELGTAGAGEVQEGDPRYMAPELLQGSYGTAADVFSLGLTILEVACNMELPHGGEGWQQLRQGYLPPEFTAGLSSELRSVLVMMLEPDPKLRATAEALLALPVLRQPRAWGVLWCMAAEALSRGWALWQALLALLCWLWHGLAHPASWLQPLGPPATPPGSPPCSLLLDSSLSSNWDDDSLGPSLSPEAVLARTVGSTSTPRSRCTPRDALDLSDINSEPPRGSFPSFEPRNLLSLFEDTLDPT

NEK2 = biological target: T3, NEK2 (Homo sapiens, UniProt P51955)
T3 sequence (P51955 1-445): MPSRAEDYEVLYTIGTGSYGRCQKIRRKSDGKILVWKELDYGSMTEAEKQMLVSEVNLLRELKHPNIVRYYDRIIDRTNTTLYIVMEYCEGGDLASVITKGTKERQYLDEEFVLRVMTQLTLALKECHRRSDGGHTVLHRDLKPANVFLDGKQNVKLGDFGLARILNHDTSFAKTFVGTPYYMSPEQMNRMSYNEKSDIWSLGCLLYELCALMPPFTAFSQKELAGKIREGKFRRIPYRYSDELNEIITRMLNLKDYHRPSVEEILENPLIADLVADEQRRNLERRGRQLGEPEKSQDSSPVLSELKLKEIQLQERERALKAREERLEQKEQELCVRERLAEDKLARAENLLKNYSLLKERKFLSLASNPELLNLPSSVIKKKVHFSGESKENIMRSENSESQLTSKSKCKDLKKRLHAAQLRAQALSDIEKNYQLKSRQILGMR

BRD4 = BRD4 (Homo sapiens, UniProt O60885)
BMPR2 = biological target: T4, BMPR2 (Homo sapiens, UniProt Q13873)
T4 sequence (Q13873 1-1038): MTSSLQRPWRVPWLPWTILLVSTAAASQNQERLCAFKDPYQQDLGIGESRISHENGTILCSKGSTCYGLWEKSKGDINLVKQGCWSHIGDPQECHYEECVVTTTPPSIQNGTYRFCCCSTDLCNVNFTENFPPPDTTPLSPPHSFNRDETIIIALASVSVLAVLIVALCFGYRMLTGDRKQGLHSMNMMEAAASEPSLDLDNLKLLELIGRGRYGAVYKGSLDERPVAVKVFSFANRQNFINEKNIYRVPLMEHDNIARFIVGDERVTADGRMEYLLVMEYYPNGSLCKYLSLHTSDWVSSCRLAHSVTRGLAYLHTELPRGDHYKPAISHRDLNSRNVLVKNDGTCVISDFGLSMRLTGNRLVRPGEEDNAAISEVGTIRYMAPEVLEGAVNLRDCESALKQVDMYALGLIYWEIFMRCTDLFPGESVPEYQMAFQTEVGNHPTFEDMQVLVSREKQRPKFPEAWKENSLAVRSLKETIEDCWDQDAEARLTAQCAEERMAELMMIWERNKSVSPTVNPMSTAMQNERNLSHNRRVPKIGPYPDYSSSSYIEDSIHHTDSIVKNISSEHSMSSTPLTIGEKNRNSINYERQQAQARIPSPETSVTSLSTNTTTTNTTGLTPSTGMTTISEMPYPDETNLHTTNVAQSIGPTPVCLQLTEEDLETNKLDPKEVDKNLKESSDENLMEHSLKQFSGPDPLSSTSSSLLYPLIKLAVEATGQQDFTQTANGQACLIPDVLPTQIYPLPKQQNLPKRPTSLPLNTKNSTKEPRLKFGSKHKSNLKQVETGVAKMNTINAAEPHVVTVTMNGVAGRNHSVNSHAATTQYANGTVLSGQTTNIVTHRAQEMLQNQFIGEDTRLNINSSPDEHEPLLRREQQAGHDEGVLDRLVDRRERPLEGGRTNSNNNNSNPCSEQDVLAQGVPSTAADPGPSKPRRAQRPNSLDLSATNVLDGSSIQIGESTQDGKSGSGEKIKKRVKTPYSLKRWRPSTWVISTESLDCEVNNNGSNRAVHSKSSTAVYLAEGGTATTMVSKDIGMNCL

EpHA4 = EpHA4 (Homo sapiens, UniProt P54764)
NEK7 = NEK7 (Homo sapiens, UniProt Q8TDX7)
CDK2 = CDK2 (Homo sapiens, UniProt P24941)

EpHA4, sequence (P54764 whole entry): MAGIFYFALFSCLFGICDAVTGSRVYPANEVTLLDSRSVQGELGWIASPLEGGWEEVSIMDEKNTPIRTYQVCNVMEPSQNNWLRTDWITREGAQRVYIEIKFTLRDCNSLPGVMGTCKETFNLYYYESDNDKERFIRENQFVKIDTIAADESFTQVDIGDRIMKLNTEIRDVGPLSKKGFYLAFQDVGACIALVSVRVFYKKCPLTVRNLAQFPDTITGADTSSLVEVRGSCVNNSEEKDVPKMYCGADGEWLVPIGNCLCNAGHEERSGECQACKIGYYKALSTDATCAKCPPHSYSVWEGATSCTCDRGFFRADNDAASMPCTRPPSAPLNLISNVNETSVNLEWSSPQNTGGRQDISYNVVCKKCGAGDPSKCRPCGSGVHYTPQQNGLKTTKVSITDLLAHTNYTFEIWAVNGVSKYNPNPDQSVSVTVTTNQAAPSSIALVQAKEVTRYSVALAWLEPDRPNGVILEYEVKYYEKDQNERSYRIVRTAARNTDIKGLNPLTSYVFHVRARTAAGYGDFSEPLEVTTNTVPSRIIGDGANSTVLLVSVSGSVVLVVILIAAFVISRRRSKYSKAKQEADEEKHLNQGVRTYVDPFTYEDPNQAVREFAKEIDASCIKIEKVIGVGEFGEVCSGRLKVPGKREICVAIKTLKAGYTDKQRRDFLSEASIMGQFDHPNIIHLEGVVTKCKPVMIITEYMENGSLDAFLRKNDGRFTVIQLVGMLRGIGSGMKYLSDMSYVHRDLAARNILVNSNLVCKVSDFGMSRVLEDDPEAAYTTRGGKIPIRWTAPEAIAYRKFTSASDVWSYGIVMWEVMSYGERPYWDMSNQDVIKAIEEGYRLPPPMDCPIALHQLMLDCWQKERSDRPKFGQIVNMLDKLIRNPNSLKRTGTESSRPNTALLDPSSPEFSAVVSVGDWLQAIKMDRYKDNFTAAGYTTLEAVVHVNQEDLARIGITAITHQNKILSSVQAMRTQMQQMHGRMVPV
NEK7, sequence (Q8TDX7 whole entry): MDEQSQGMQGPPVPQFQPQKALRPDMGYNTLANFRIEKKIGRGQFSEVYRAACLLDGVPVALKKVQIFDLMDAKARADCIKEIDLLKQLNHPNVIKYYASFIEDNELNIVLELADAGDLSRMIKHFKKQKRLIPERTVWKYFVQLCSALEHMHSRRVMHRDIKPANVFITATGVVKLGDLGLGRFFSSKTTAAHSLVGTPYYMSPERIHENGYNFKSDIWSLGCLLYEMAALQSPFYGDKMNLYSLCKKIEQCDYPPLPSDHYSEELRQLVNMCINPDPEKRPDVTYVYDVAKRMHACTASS

ΔTm at 10 µM (DRAK2; read-out: dTm 7): 0.1 °C
ΔTm at 10 µM (MYT1; read-out: dTm 7): 0.1 °C
ΔTm at 10 µM (NEK2; read-out: dTm 7): 2.1 °C
ΔTm at 10 µM (BRD4; read-out: dTm 7): 0.9 °C
ΔTm at 10 µM (BMPR2; read-out: dTm 7): 0 °C
ΔTm at 10 µM (EpHA4; read-out: dTm 7): 3.6 °C
ΔTm at 10 µM (NEK7; read-out: dTm 7): -0.2 °C
ΔTm at 10 µM (CDK2; read-out: dTm 7): 0.3 °C
Compound: CNc1ncc2cc(-c3cc(Br)ccc3Cl)c(=O)n(C[C@H]3OC[C@H](N)CO3)c2n1 [compound 7, 8-(((2r,5r)-5-Amino-1,3-dioxan-2-yl)methyl)-6-(5-bromo-2-chlorophenyl)-2-(methylamino)pyrido[2,3-d]pyrimidin-7(8H)-one]

dTm G-5555 (2) (DRAK2; 10 µM, binder): -0.3 °C
dTm G-5555 (2) (MYT1; 10 µM, binder): -2.1 °C
dTm G-5555 (2) (BRD4; 10 µM, binder): -1.1 °C
dTm G-5555 (2) (BMPR2; 10 µM, binder): -0.4 °C
dTm G-5555 (2) (NEK7; 10 µM, binder): 0.1 °C
dTm G-5555 (2) (CDK2; 10 µM, binder): 0.5 °C
Compound: CNc1ncc2cc(-c3ccc(-c4cccc(C)n4)cc3Cl)c(=O)n(CC3OCC(N)CO3)c2n1 (stereo not shown) [compound 2, G-5555]

ΔTm at 10 µM (DRAK2; read-out: dTm 6): -0.2 °C
ΔTm at 10 µM (MYT1; read-out: dTm 6): -1.4 °C
ΔTm at 10 µM (NEK2; read-out: dTm 6): 2 °C
ΔTm at 10 µM (BRD4; read-out: dTm 6): -0.1 °C
ΔTm at 10 µM (BMPR2; read-out: dTm 6): -0.3 °C
ΔTm at 10 µM (NEK7; read-out: dTm 6): -1 °C
ΔTm at 10 µM (CDK2; read-out: dTm 6): 0.5 °C
Compound: CNc1ncc2cc(-c3cc(Br)ccc3Cl)c(=O)n(CCCCN)c2n1 [compound 6, 8-(4-Aminobutyl)-6-(5-bromo-2-chlorophenyl)-2-(methylamino)pyrido[2,3-d]pyrimidin-7(8H)-one]

ΔTm at 10 µM (DRAK2; read-out: dTm MR22 (5)): 0.1 °C
ΔTm at 10 µM (MYT1; read-out: dTm MR22 (5)): -2.1 °C
ΔTm at 10 µM (NEK2; read-out: dTm MR22 (5)): 1 °C
ΔTm at 10 µM (BRD4; read-out: dTm MR22 (5)): -2.8 °C
ΔTm at 10 µM (BMPR2; read-out: dTm MR22 (5)): 0.3 °C
ΔTm at 10 µM (EpHA4; read-out: dTm MR22 (5)): 3 °C
ΔTm at 10 µM (NEK7; read-out: dTm MR22 (5)): -1.3 °C
ΔTm at 10 µM (CDK2; read-out: dTm MR22 (5)): 0.7 °C
Compound: CNc1ncc2cc(-c3cc(F)ccc3F)c(=O)n(CCCCN)c2n1 [compound 5, 8-(4-Aminobutyl)-6-(2,5-difluorophenyl)-2-(methylamino)pyrido[2,3-d]pyrimidin-7(8H)-one]

ΔTm at 10 µM (DRAK2; read-out: dTm MR21 (4)): -0.5 °C
ΔTm at 10 µM (MYT1; read-out: dTm MR21 (4)): -2.3 °C
ΔTm at 10 µM (NEK2; read-out: dTm MR21 (4)): 0.5 °C
ΔTm at 10 µM (BRD4; read-out: dTm MR21 (4)): 0.1 °C
ΔTm at 10 µM (BMPR2; read-out: dTm MR21 (4)): 1.6 °C
ΔTm at 10 µM (EpHA4; read-out: dTm MR21 (4)): 4.9 °C
ΔTm at 10 µM (NEK7; read-out: dTm MR21 (4)): 0.1 °C
ΔTm at 10 µM (CDK2; read-out: dTm MR21 (4)): 0.4 °C
Compound: CNc1ncc2cc(-c3ccccc3Cl)c(=O)n(CCCCN)c2n1 [compound 4, 8-(4-Aminobutyl)-6-(2-chlorophenyl)-2-(methylamino)pyrido[2,3-d]pyrimidin-7(8H)-one]
